Measurements: PubChem BioAssay AID1845203 (Molecular Pharmacology Branch, DTP, NCI, 2023)
pIC50: −log10 of the molar value.

System: G-401 tumor spheroids, viability % test/control
Assay: Anticancer human tumor G-401 cell line growth inhibition;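 further: spheroids exposed to compound for 7 days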;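 on viability, T/C: 100% = DMSO vehicle-treated spheroids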
Conditions: spheroids with HUVEC and MSC; for pIC50: curve of first compound; for viability, T/C: stronger effect = lower value
Method in brief: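 Complex tumor spheroids combined malignant cells with endothelial cells and mesenchymal stem cells. DNA-damaging drugs and DNA repair inhibitors were tested alone and in combination, at half-log dilutions down from clinical Cmax (top 10 microM if Cmax unknown), 0.25% DMSO final.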

[1] = second compound 1 µM, first compound 0.00949 µM
[2] = second compound 1 µM, first compound 0.03 µM
[3] = second compound 1 µM, first compound 0.0949 µM
[4] = second compound 1 µM, first compound 0.3 µM
[5] = second compound 1 µM, first compound 0.949 µM
[6] = second compound 1 µM, first compound 3 µM
[7] = second compound 3.16 µM, first compound 0.00949 µM
[8] = second compound 3.16 µM, first compound 0.03 µM
[9] = second compound 3.16 µM, first compound 0.0949 µM
[10] = second compound 3.16 µM, first compound 0.3 µM
[11] = second compound 3.16 µM, first compound 0.949 µM
[12] = second compound 3.16 µM, first compound 3 µM
[13] = second compound 10 µM, first compound 0.00949 µM
[14] = second compound 10 µM, first compound 0.03 µM
[15] = second compound 10 µM, first compound 0.0949 µM
[16] = second compound 10 µM, first compound 0.3 µM
[17] = second compound 10 µM, first compound 0.949 µM
[18] = second compound 10 µM, first compound 3 µM
[19] = second compound 31.6 µM, first compound 0.00949 µM
[20] = second compound 31.6 µM, first compound 0.03 µM
[21] = second compound 31.6 µM, first compound 0.0949 µM
[22] = second compound 31.6 µM, first compound 0.3 µM
[23] = second compound 31.6 µM, first compound 0.949 µM
[24] = second compound 31.6 µM, first compound 3 µM
[25] = second compound 100 µM, first compound 0.00949 µM
[26] = second compound 100 µM, first compound 0.03 µM
[27] = second compound 100 µM, first compound 0.0949 µM
[28] = second compound 100 µM, first compound 0.3 µM
[29] = second compound 100 µM, first compound 0.949 µM
[30] = second compound 100 µM, first compound 3 µM

## CNCc1ccc(-c2cc(-c3nc(-c4ccc(S(=O)(=O)C(C)C)cc4)cnc3N)on2)cc1 + Cn1nnc2c(C(N)=O)ncn2c1=O
Second compound 1 µM
  pIC50: 5.70
Second compound 3.16 µM
  pIC50: 5.75
Second compound 10 µM
  pIC50: 5.97
Second compound 31.6 µM
  pIC50: 6.04
Second compound 100 µM
  pIC50: 6.49
[1]
  viability, T/C: 105%
[2]
  viability, T/C: 108%
[3]
  viability, T/C: 106%
[4]
  viability, T/C: 106%
[5]
  viability, T/C: 72.7%
[6]
  viability, T/C: 37.8%
[7]
  viability, T/C: 109%
[8]
  viability, T/C: 105%
[9]
  viability, T/C: 104%
[10]
  viability, T/C: 103%
[11]
  viability, T/C: 64.1%
[12]
  viability, T/C: 38.4%
[13]
  viability, T/C: 103%
[14]
  viability, T/C: 97.6%
[15]
  viability, T/C: 100%
[16]
  viability, T/C: 99.2%
[17]
  viability, T/C: 52.5%
[18]
  viability, T/C: 25.4%
[19]
  viability, T/C: 93.9%
[20]
  viability, T/C: 94.7%
[21]
  viability, T/C: 96.2%
[22]
  viability, T/C: 85.1%
[23]
  viability, T/C: 49%
[24]
  viability, T/C: 20.4%
[25]
  viability, T/C: 96.3%
[26]
  viability, T/C: 98.7%
[27]
  viability, T/C: 90.4%
[28]
  viability, T/C: 51.7%
[29]
  viability, T/C: 27.1%
[30]
  viability, T/C: 25.7%

## Cc1sc2c(c1C)C(c1ccc(Cl)cc1)=NC(CC(=O)Nc1ccc(O)cc1)c1nnc(C)n1-2 (stereo not given) + Cn1nnc2c(C(N)=O)ncn2c1=O
Second compound 1 µM
  pIC50: 6.77
Second compound 3.16 µM
  pIC50: 6.75
Second compound 10 µM
  pIC50: 6.79
Second compound 31.6 µM
  pIC50: 6.83
Second compound 100 µM
  pIC50: 6.83
[1]
  viability, T/C: 108%
[2]
  viability, T/C: 83%
[3]
  viability, T/C: 67.4%
[4]
  viability, T/C: 37.6%
[5]
  viability, T/C: 13.4%
[6]
  viability, T/C: 10.3%
[7]
  viability, T/C: 93%
[8]
  viability, T/C: 91.8%
[9]
  viability, T/C: 65.1%
[10]
  viability, T/C: 35.6%
[11]
  viability, T/C: 19.7%
[12]
  viability, T/C: 8.06%
[13]
  viability, T/C: 101%
[14]
  viability, T/C: 77.3%
[15]
  viability, T/C: 63.5%
[16]
  viability, T/C: 38%
[17]
  viability, T/C: 20.9%
[18]
  viability, T/C: 9.13%
[19]
  viability, T/C: 84.5%
[20]
  viability, T/C: 82.6%
[21]
  viability, T/C: 56.1%
[22]
  viability, T/C: 34%
[23]
  viability, T/C: 20.5%
[24]
  viability, T/C: 4.42%
[25]
  viability, T/C: 102%
[26]
  viability, T/C: 83%
[27]
  viability, T/C: 64.8%
[28]
  viability, T/C: 30.4%
[29]
  viability, T/C: 11.2%
[30]
  viability, T/C: 4.09%

## Cn1ncnc1[C@H]1c2n[nH]c(=O)c3cc(F)cc(c23)N[C@@H]1c1ccc(F)cc1 + Cn1nnc2c(C(N)=O)ncn2c1=O
Second compound 1 µM
  pIC50: 6.81
Second compound 3.16 µM
  pIC50: 7.24
Second compound 10 µM
  pIC50: 7.65
Second compound 31.6 µM
  pIC50: > 8.02
Second compound 100 µM
  pIC50: > 8.02
[1]
  viability, T/C: 81.7%
[2]
  viability, T/C: 73.9%
[3]
  viability, T/C: 57.2%
[4]
  viability, T/C: 39.6%
[5]
  viability, T/C: 23.3%
[6]
  viability, T/C: 12.6%
[7]
  viability, T/C: 87.8%
[8]
  viability, T/C: 54.6%
[9]
  viability, T/C: 45.3%
[10]
  viability, T/C: 30.5%
[11]
  viability, T/C: 23.4%
[12]
  viability, T/C: 13.2%
[13]
  viability, T/C: 63%
[14]
  viability, T/C: 44.9%
[15]
  viability, T/C: 32.4%
[16]
  viability, T/C: 23.3%
[17]
  viability, T/C: 15.7%
[18]
  viability, T/C: 10.4%
[19]
  viability, T/C: 35.6%
[20]
  viability, T/C: 21.3%
[21]
  viability, T/C: 16.4%
[22]
  viability, T/C: 13.9%
[23]
  viability, T/C: 10.4%
[24]
  viability, T/C: 9.51%
[25]
  viability, T/C: 14.1%
[26]
  viability, T/C: 11.6%
[27]
  viability, T/C: 10.8%
[28]
  viability, T/C: 10.3%
[29]
  viability, T/C: 8.87%
[30]
  viability, T/C: 6.62%

## O=C(c1cc(Cc2n[nH]c(=O)c3ccccc23)ccc1F)N1CCN(C(=O)C2CC2)CC1 + Cn1nnc2c(C(N)=O)ncn2c1=O
Second compound 1 µM
  pIC50: 4.91
Second compound 3.16 µM
  pIC50: 5.08
Second compound 10 µM
  pIC50: 5.29
Second compound 31.6 µM
  pIC50: 5.67
Second compound 100 µM
  pIC50: 6.40
[3]
  viability, T/C: 102%
[4]
  viability, T/C: 102%
[5]
  viability, T/C: 93.3%
[6]
  viability, T/C: 83%
Second compound 1 µM, first compound 9.49 µM
  viability, T/C: 54%
Second compound 1 µM, first compound 30 µM
  viability, T/C: 32.9%
[9]
  viability, T/C: 94.4%
[10]
  viability, T/C: 96.5%
[11]
  viability, T/C: 96.7%
[12]
  viability, T/C: 80.4%
Second compound 3.16 µM, first compound 9.49 µM
  viability, T/C: 46.6%
Second compound 3.16 µM, first compound 30 µM
  viability, T/C: 28.3%
[15]
  viability, T/C: 91.2%
[16]
  viability, T/C: 95%
[17]
  viability, T/C: 94.5%
[18]
  viability, T/C: 66.7%
Second compound 10 µM, first compound 9.49 µM
  viability, T/C: 31.3%
Second compound 10 µM, first compound 30 µM
  viability, T/C: 20.4%
[21]
  viability, T/C: 91.6%
[22]
  viability, T/C: 83.2%
[23]
  viability, T/C: 79%
[24]
  viability, T/C: 37.4%
Second compound 31.6 µM, first compound 9.49 µM
  viability, T/C: 19.5%
Second compound 31.6 µM, first compound 30 µM
  viability, T/C: 15.4%
[27]
  viability, T/C: 65.8%
[28]
  viability, T/C: 58.1%
[29]
  viability, T/C: 26.8%
[30]
  viability, T/C: 17.9%
Second compound 100 µM, first compound 9.49 µM
  viability, T/C: 14.3%
Second compound 100 µM, first compound 30 µM
  viability, T/C: 13.3%
